What follows are compounds tested against CDK2/Cyclin-A kinase complex (Homo sapiens, UniProt P24941) (assay: CDK2 IMAP fluorescence polarization assay). Settings: Table E; read-out: CDK2cyA IMAP/IC50 [umol l − 1].
Type: biochemical
From the text: In order to test the CDK2 activity of the compounds of the invention, the CDK2 assay is a flourescence polarization assay, where the enzyme is a purified active CDK2/Cyclin-A kinase complex and the substrate is a synthesized peptide derived from Histone H1. This assay utilizes the IMAP technology from Molecular Devices. The active CDK2/Cyclin-A complex phosphorylates the peptide substrate, which is conjugated with the TAMRA tag. The phosphorylated site is then recognized by a metal containing molecule that interacts with the TAMRA tag to induce a high flourescence polarization. The compounds that inhibit the CDK2 kinase activity would inhibit the flourescence output of the assay.
Work on `Cc1cn(C2CCCC2)c2nc(Nc3ccc(C(=O)N4CCOCC4)cc3)ncc12` [Example 292] yielded an IC50 of under 10 µM.

These compounds were tested against hCDK1/B (Homo sapiens, UniProt P06493) (assay: hCDK1/B assay). Settings: Table E; read-out: hCDK1/B/IC50 [umol l − 1].
hCDK1/B, sequence (P06493 whole entry): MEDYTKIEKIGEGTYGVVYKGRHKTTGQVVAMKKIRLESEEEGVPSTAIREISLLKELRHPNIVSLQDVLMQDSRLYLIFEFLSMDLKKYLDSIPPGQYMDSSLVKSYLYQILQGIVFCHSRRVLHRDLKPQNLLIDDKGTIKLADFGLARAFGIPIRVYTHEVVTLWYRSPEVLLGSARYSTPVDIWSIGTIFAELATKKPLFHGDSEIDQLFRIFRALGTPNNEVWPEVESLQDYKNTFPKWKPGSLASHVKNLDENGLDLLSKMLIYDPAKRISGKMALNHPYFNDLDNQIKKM
hCDK1/B, sequence (P14635 whole entry partner): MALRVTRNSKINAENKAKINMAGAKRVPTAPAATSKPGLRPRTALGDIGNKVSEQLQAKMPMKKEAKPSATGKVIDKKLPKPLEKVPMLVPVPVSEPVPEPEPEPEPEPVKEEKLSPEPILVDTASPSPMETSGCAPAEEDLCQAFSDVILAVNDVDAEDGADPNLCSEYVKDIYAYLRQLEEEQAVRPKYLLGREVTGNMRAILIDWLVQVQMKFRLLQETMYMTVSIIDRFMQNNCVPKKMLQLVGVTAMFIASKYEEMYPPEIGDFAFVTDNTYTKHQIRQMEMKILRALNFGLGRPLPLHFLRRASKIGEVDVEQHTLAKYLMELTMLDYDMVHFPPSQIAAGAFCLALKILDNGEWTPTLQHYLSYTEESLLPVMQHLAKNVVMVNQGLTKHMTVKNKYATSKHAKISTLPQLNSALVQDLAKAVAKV
Type: biochemical
With `Cc1cn(C2CCCC2)c2nc(Nc3ccc(C(=O)N4CCOCC4)cc3)ncc12` [Example 292] the IC50 was under 10 µM. `Cc1cn(C2CCCC2)c2nc(Nc3ccc(N4CCNCC4)cn3)ncc12` [Example 267] was tested, and the IC50 was over 10 µM.

These compounds were tested against T1, JAK-3 (Homo sapiens, UniProt P52333) (assay: JAK LANCE enzymatic assay (JAK-3)). Settings: Table A; read-out: Jak-3/ IC50.
T1 construct: GST fusion constructs of the kinase domains of both enzymes are used; GST
T1 sequence (P52333 822-1111 limits assumed): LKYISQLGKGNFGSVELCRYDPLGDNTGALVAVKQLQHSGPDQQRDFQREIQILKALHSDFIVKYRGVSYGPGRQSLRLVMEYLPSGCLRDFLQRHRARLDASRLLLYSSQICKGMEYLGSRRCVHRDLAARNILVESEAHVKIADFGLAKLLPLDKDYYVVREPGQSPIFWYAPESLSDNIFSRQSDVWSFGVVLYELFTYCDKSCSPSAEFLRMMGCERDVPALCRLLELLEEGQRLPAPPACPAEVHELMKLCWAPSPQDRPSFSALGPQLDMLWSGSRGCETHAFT
Type: biochemical
From the text: Binding of cytokines and certain growth factors to their respective receptors trigger activation of Janus kinases, which phosphorylate members of the STAT family. Phosphorylated STAT molecules dimerize and migrate to the nucleus where they bind to DNA and initiate transcription of responsive genes. Inhibitors of pathways downstream of cytokine/growth factor receptors have therapeutic potential for several indications. An enzymatic assay for JAK-3 and JAK-2 has been developed to identify T-cell selective inhibitors. GST fusion constructs of the kinase domains of both enzymes are used and a biotinylated, tyrosine containing peptide serves as substrate. Phosphorylation of this peptide by the respective kinase is quantified with an europium-labeled anti-phosphotyrosine antibody (Eu-PT66) as energy donor and a streptavidin-allophycocyanine conjugate (SA-APC) as energy acceptor. The assay has been established in a 384 well format.
In the JAK LANCE™ assay, a biotinylated peptide is incubated together with compounds and ATP in buffer. The phosphorylation reaction starts after addition of JAK kinase. After incubation at RT the reaction is stopped with EDTA and the product detected by addition Streptavidin-Allophycocyanin and Europium-labeled antiphosphotyrosine antibody. The signal is measured using an EnVision Reader. Exc: 320 nm, Em, Donor: 615 nm and Em, Acceptor: 665 nm in time resolved fashion with a delay of […].
With `CN1CCN(c2ccc(Nc3ncc4c(n3)N(C3CC3)C(=O)C4)cc2)CC1` the IC50 was at least 0.1 µM. In the case of `CCC(CC)N1C(=O)Cc2cnc(Nc3cc(NC(=O)c4ccncc4)ccc3OC)nc21`, the IC50 is reported as at least 0.1 µM. For `CN1CCN(C(=O)c2cccc(Nc3ncc4c(n3)N(C3CCCCC3)C(=O)C4)c2)CC1`, the IC50 was at least 0.1 µM. `CCC(CC)n1ccc2cnc(Nc3cccc(NC(=O)c4ccncc4)c3)nc21` showed an IC50 of at most 0.1 µM. With `CCC(CC)N1C(=O)Cc2cnc(Nc3ccc(C(=O)NC(C)C)cc3)nc21` the IC50 was at least 0.1 µM. For `CCC(CC)N1C(=O)Cc2cnc(Nc3cccc(C(=O)N4CCN(C)CC4)c3)nc21`, the IC50 was at least 0.1 µM. In the case of `CCC(CC)N1C(=O)Cc2cnc(Nc3cc(C(=O)N4CCOCC4)ccc3OC)nc21`, the IC50 is reported as at least 0.1 µM. For `COc1ccc(C(=O)N2CCOCC2)cc1Nc1ncc2c(n1)NC(=O)C2` [drawing 19], the IC50 was at least 0.1 µM. With `CCC(CC)N1C(=O)Cc2cnc(Nc3ccc(N4CCC(OC(=O)c5ccccc5)CC4)cc3)nc21` the IC50 was at least 0.1 µM. For `CCC(CC)n1c(=O)[nH]c2cnc(Nc3ccc(N4CCN(C)CC4)cc3)nc21`, the IC50 was at most 0.1 µM. Work on `CCC(CC)N1C(=O)Cc2cnc(Nc3cc(C(=O)N4CCOCC4)ccc3F)nc21` yielded an IC50 of at least 0.1 µM. In the case of `CCC(CC)N1C(=O)Cc2cnc(Nc3ccc(N4CCN(C(C)=O)CC4)cc3)nc21`, the IC50 is reported as at most 0.1 µM. With `CCC(CC)N1C(=O)Cc2cnc(Nc3ccc(C(=O)N4CCOCC4)cc3)nc21` the IC50 was at least 0.1 µM. With `CCC(CC)N1C(=O)Cc2cnc(Nc3cccc(OCCn4ccnc4)c3)nc21` the IC50 was at least 0.1 µM. `CCC(CC)N1C(=O)Cc2cnc(Nc3ccc(NS(=O)(=O)c4ccc(C)cc4)cc3)nc21` was tested, and the IC50 was at least 0.1 µM. `CCC(CC)N1C(=O)Cc2cnc(Nc3cccc(-c4nncn4C)c3)nc21` was tested, and the IC50 was at least 0.1 µM. `CCC(CC)N1C(=O)Cc2cnc(Nc3ccc(N4CCCCC4)cc3)nc21` gave an IC50 of at least 0.1 µM. With `CCC(CC)N1C(=O)Cc2cnc(Nc3ccc(OCCN4CCCC4)cc3)nc21` the IC50 was at most 0.1 µM. Work on `O=C1Cc2cnc(Nc3ccc(N4CCOCC4)cc3)nc2N1C1CC1` yielded an IC50 of at least 0.1 µM. For `CCC(CC)N1C(=O)Cc2cnc(Nc3ccc(C(=O)NC(C)(C)C)cc3)nc21`, the IC50 was at least 0.1 µM. `CCC(CC)N1C(=O)Cc2cnc(Nc3ccc(N4CCN(C)CC4)cc3)nc21` gave an IC50 of at most 0.1 µM. `CCC(CC)n1cnc2cnc(Nc3ccc(N4CCN(C(C)=O)CC4)cc3)nc21` showed an IC50 of at least 0.1 µM. Work on `CCC(CC)N1C(=O)Cc2cnc(Nc3cccc(NC(=O)c4ccncc4)c3)nc21` yielded an IC50 of at most 0.1 µM. `CCC(CC)n1c(=O)n(C)c2cnc(Nc3ccc(N4CCN(C)CC4)cc3)nc21` was tested, and the IC50 was at most 0.1 µM. `CCC(CC)N1C(=O)Cc2cnc(Nc3ccc4[nH]ncc4c3)nc21` was tested, and the IC50 was at least 0.1 µM. In the case of `CCC(CC)N1C(=O)Cc2cnc(Nc3ccc(C(=O)NCCN4CCN(C)CC4)cc3)nc21`, the IC50 is reported as at least 0.1 µM. For `CCC(CC)n1ccc2cnc(Nc3ccc(N4CCN(C(C)=O)CC4)cn3)nc21` [drawing 81], the IC50 was at least 0.1 µM. Compound `CCC(CC)N1C(=O)Cc2cnc(Nc3ccc(N4CCN(C)CC4)nc3)nc21` has an IC50 of at least 0.1 µM. `O=C1Cc2cnc(Nc3ccc(C(=O)N4CCOCC4)cc3)nc2N1` was tested, and the IC50 was at least 0.1 µM. With `CCC(CC)n1c(=O)[nH]c2cnc(Nc3ccc(N4CCN(C(C)=O)CC4)cc3)nc21` the IC50 was at least 0.1 µM. Work on `CCN1C(=O)Cc2cnc(Nc3ccc(N4CCN(C)CC4)cc3)nc21` yielded an IC50 of at least 0.1 µM. With `CCC(c1ccccc1)N1C(=O)Cc2cnc(Nc3ccc(N4CCN(C(C)=O)CC4)cc3)nc21` (centres unmarked) the IC50 was at least 0.1 µM. With `CCC(CC)n1cnc2cnc(Nc3ccc(N4CCN(C)CC4)cc3)nc21` the IC50 was at least 0.1 µM. Compound `CCC(CC)N1C(=O)Cc2cnc(Nc3cccc(N(C)CCN4CCCC4)c3)nc21` has an IC50 of at least 0.1 µM. Work on `CCC(CC)N1C(=O)Cc2cnc(Nc3ccc(-n4cncn4)cc3)nc21` yielded an IC50 of at least 0.1 µM. For `CCC(CC)N1C(=O)Cc2cnc(Nc3ccc(C(=O)N(C)C)cc3)nc21`, the IC50 was at least 0.1 µM. `O=C1Cc2cnc(Nc3ccc(N4CCOCC4)cc3)nc2N1C1CCCC1` gave an IC50 of at least 0.1 µM. `CCC(CC)N1C(=O)Cc2cnc(Nc3cc(NC(=O)c4ccncc4)ccc3F)nc21` was tested, and the IC50 was at least 0.1 µM. `CCC(CC)N1C(=O)Cc2cnc(Nc3ccc(N4CCN(C)CC4)c(F)c3)nc21` was tested, and the IC50 was at most 0.1 µM. `CCC(CC)N1C(=O)Cc2cnc(Nc3cccc(OCCN4CCCC4)c3)nc21` was tested, and the IC50 was at most 0.1 µM. `CCC(CC)N1C(=O)Cc2cnc(Nc3ccc(C(=O)N4CCN(C)CC4)cc3)nc21` showed an IC50 of at least 0.1 µM. In the case of `CCC(CC)N1C(=O)Cc2cnc(Nc3ccc(NC(=O)c4ccncc4)cc3)nc21`, the IC50 is reported as at least 0.1 µM. `CCC(CC)N1C(=O)Cc2cnc(Nc3cccc(C(=O)N4CCOCC4)c3)nc21` gave an IC50 of at least 0.1 µM. In the case of `O=C1Cc2cnc(Nc3ccc(N4CCOCC4)cc3)nc2N1`, the IC50 is reported as at least 0.1 µM. `CCC(c1ccccc1)N1C(=O)Cc2cnc(Nc3cccc(OCCn4ccnc4)c3)nc21` (centres unmarked) gave an IC50 of at least 0.1 µM. With `CCC(CC)N1C(=O)Cc2cnc(Nc3ccc(C(=O)NC4CCCC4)cc3)nc21` the IC50 was at most 0.1 µM. `CN1CCN(C(=O)c2cccc(Nc3ncc4c(n3)N(C3CC3)C(=O)C4)c2)CC1` showed an IC50 of at least 0.1 µM. Work on `CCC(CC)N1C(=O)Cc2cnc(Nc3ccc(N4CCC(N5CCN(C)CC5)CC4)cc3)nc21` yielded an IC50 of at most 0.1 µM. For `CCC(CC)N1C(=O)Cc2cnc(Nc3cccc(OCCN(CC)CC)c3)nc21`, the IC50 was at least 0.1 µM. For `CCC(CC)N1C(=O)Cc2cnc(Nc3cccc(NCCN4CCN(C)CC4)c3)nc21`, the IC50 was at most 0.1 µM. Work on `CCC(c1ccccc1)N1C(=O)Cc2cnc(Nc3cccc(OCCN4CCCC4)c3)nc21` (centres unmarked) yielded an IC50 of at least 0.1 µM. In the case of `COc1ccc(C(=O)N2CCOCC2)cc1Nc1ncc2c(n1)NC(=O)C2` [drawing 17], the IC50 is reported as at least 0.1 µM. For `CC(=O)N1CCN(c2ccc(Nc3ncc(Br)c(Nc4ccccn4)n3)cc2)CC1`, the IC50 was at most 0.1 µM. Work on `CN1CCN(c2ccc(Nc3ncc4c(n3)N(C3CCCC3)C(=O)C4)cc2)CC1` yielded an IC50 of at least 0.1 µM. Work on `CCC(CC)n1ccc2cnc(Nc3ccc(N4CCN(C)CC4)cn3)nc21` [drawing 82] yielded an IC50 of at least 0.1 µM. With `CCC(CC)N1C(=O)C(C)(C)c2cnc(Nc3ccc(N4CCN(C(C)=O)CC4)cc3)nc21` the IC50 was at least 0.1 µM. Compound `CCC(CC)N1C(=O)Cc2cnc(Nc3ccc(N4CCN(C)CC4)cn3)nc21` has an IC50 of at least 0.1 µM. For `CN1CCN(c2ccc(Nc3ncc4c(n3)NC(=O)C4)cc2)CC1`, the IC50 was at least 0.1 µM. For `CCC(CC)N1C(=O)Cc2cnc(Nc3ccc(C(=O)NCCN4CCCCC4)cc3)nc21`, the IC50 was at least 0.1 µM. `CCNC(=O)c1ccc(Nc2ncc3c(n2)N(C(CC)CC)C(=O)C3)cc1` gave an IC50 of at most 0.1 µM. With `CCC(CC)N1C(=O)Cc2cnc(Nc3cccc(OCCN4CCOCC4)c3)nc21` the IC50 was at least 0.1 µM. With `CCC(CC)n1ccc2cnc(Nc3ccc(N4CCN(C)CC4)cc3)nc21` the IC50 was at most 0.1 µM.

Same assay, conditions: Table B; read-out: Jak-3 Lance/ IC50 [nmol I-1]
In the case of `CCOC(OCC)c1cc2cnc(Nc3ccc(N4CCN(C(C)=O)CC4)cc3)nc2n1C(CC)CC` [drawing 117], the IC50 is reported as at least 0.1 µM. For `CCC(CC)n1cc(C)c2cnc(Nc3ccc(N4CCN(C(C)=O)CC4)cc3)nc21` [drawing 101], the IC50 was at least 0.1 µM. In the case of `CCC(CC)n1c(C)cc2cnc(Nc3ccc(N4CCNCC4)cc3)nc21` [drawing 125], the IC50 is reported as at most 0.1 µM. With `CCC(CC)N1C(=O)C(C)(C)c2cnc(Nc3ccc(N4CCN(C)CC4)cc3)nc21` [drawing 105] the IC50 was at least 0.1 µM. `CCC(CC)n1c(C)cc2cnc(Nc3ccc(C(=O)NC4CCCC4)cc3)nc21` [drawing 124] showed an IC50 of at least 0.1 µM. Work on `CCC(CC)n1ccc2cnc(NC3CC3)nc21` [drawing 100] yielded an IC50 of at least 0.1 µM. For `CCC(CC)n1cc(C)c2cnc(Nc3ccc(C(=O)NC4CCCC4)cc3)nc21` [drawing 116], the IC50 was at least 0.1 µM. `CCC(CC)n1cc(C)c2cnc(Nc3ccc(N4CCN(C)CC4)cc3)nc21` [drawing 103] showed an IC50 of at least 0.1 µM. With `CCC(CC)N1C(=O)C(C)(C)c2cnc(Nc3ccc(N4CCNCC4)cc3)nc21` [drawing 112] the IC50 was at least 0.1 µM. Work on `Cc1cn(C2CC2)c2nc(Nc3ccc(N4CCNCC4)cn3)ncc12` [drawing 123] yielded an IC50 of at least 0.1 µM. `Cc1cn(C2CCCCC2)c2nc(Nc3ccc(N4CCNCC4)cn3)ncc12` [drawing 127] gave an IC50 of at least 0.1 µM. With `CCC(CC)n1c(C=O)cc2cnc(Nc3ccc(N4CCN(C(C)=O)CC4)cc3)nc21` [drawing 118] the IC50 was at most 0.1 µM. With `CC(=O)N1CCN(c2ccc(Nc3ncc4c(C)cn(C5CCCCC5)c4n3)cc2)CC1` [drawing 120] the IC50 was at least 0.1 µM. Work on `CCC(CC)n1c(CO)cc2cnc(Nc3ccc(N4CCN(C(C)=O)CC4)cc3)nc21` [drawing 119] yielded an IC50 of at most 0.1 µM. `Cc1cn(C2CC2)c2nc(Nc3ccc(N4CCN(C)CC4)cc3)ncc12` [drawing 121] gave an IC50 of at least 0.1 µM. `Cc1cn(C2CCCCC2)c2nc(Nc3ccc(N4CCN(C)CC4)cc3)ncc12` [drawing 115] was tested, and the IC50 was at least 0.1 µM. `Cc1cn(C2CCCC2)c2nc(Nc3ccc(N4CCN(C)CC4)cc3)ncc12` gave an IC50 of at least 0.1 µM. Work on `CCC(CC)n1ccc2cnc(Nc3ccc(C(=O)NC4CCCC4)cc3)nc21` [drawing 99] yielded an IC50 of at most 0.1 µM.
